Experimental data from the NIST ThermoML archive (doi:10.1016/j.tca.2015.01.017).
Numbers after ± are expanded uncertainties.

Legend:
[1] = DTA; for Normal melting temperature: Crystal 1
[2] = Molar enthalpy of transition or fusion; details: DSC

Row | SMILES | Normal melting temperature [1] | Molar enthalpy of transition or fusion ([2]; Crystal) | Triple point temperature ([1]; Crystal 2) | Triple point temperature ([1]; Crystal 3) | Triple point temperature ([1]; Crystal 4) | Molar enthalpy of transition or fusion ([2]; Crystal 1) | Molar enthalpy of transition or fusion ([2]; Crystal 3)
1 | Clc1c(Cl)c(Cl)c(Cl)c(Cl)c1Cl [hexachlorobenzene] | 231 ± 0.5 °C | 23.9 ± 0.71 kJ/mol |  |  |  |  | 
2 | Oc1c(Cl)c(Cl)c(Cl)c(Cl)c1Cl [pentachlorophenol] | 191.7 ± 0.5 °C |  | 441.6 ± 0.5 K | 340.2 ± 0.5 K | 287.4 ± 0.5 K | 15.4 ± 0.51 kJ/mol | 9 ± 0.35 kJ/mol
